Data as given in US11413348B2, “Low molecular weight cationic lipids for oligonucleotide delivery” (SIRNA THERAPEUTICS, INC., priority 2010, dated 2022).

Tests used:
[1] = Determination of cationic lipid levels in rat liver (LC/MS-MS); type: in vivo; conditions: rats, FIG. 3
Protocol: Liver tissue was weighed into 20-ml vials and homogenized in 9 v/w of water using a GenoGrinder 2000 (OPS Diagnostics, 1600 strokes/min, 5 min). A 50 μL aliquot of each tissue homogenate was mixed with 300 μL of extraction/protein precipitating solvent (50/50 acetonitrile/methanol containing 500 nM internal standard) and the plate was centrifuged to sediment precipitated protein. A volume of 200 μL of each supernatant was then transferred to separate wells of a 96-well plate and 10 μl samples were directly analyzed by LC/MS-MS.
Standards were prepared by spiking known amounts of a methanol stock solution of compound into untreated rat liver homogenate (9 vol water/weight liver). Aliquots (50 μL) each standard/liver homogenate was mixed with 300 μL of extraction/protein precipitating solvent (50/50 acetonitrile/methanol containing 500 nM internal standard) and the plate was centrifuged to sediment precipitated protein. A volume of 200 μL of each supernatant was transferred to separate wells of a 96-well plate and 10 μl of each standard was directly analyzed by LC/MS-MS.
Absolute quantification versus standards prepared and extracted from liver homogenate was performed using an Aria LX-2 HPLC system (Thermo Scientific) coupled to an API 4000 triple quadrupole mass spectrometer (Applied Biosystems). […]

CTNNB1 mRNA = experiment: Rhesus monkey in vivo evaluation of β-catenin efficacy (liver CTNNB1 mRNA); conditions: beta-catenin siRNA, doses ranging from 0.67-3.34 mg/m^2, intravenous bolus, FIG. 5
Protocol: On study day −7 predose liver biopsy samples (˜0.5-1 gram/sample) were collected from male rhesus monkeys by laparoscopic surgical resection (resection of one biopsy sample from outer edge of one randomly selected liver lobe per monkey). A 5 mm tissue punch was used to sample three non-adjacent ˜50 mg samples from each predose biopsy. Samples were preserved in RNAlater™ (Ambion) for later CTNNB1 mRNA analysis.
On study day 0 monkeys were administered suspensions of the lipid nanoparticle (LNP) test articles in phosphate buffered saline (0.05-0.1 mg siRNA/mL) via single-dose intravenous bolus injection at target doses of 0.67, 1.34 or 3.34 mg siRNA/m^2. […]
CTNNB1 mRNA levels were measured by relative quantitative RT-PCR using a primer/probe set validated for CTNNB1 and normalized against mRNA levels of peptidylprolyl isomerase B (also known as PPIB or cyclophilin B) and RNA levels of 18S ribosomal RNA (18S rRNA). Change in CTNNB1 mRNA liver expression was measured as the difference in PCR threshold cycle number (ΔΔCt) between post-dose samples and each corresponding monkey's predose liver samples.
Calculation of CTNNB1 mRNA knockdown (with respect to pretreatment levels) was calculated from ΔΔCt using the following relationship: mRNA (% knockdown)=100−(100/2^−ΔΔCt)

[2] = Rhesus monkey in vivo evaluation of ALT increases; conditions: serum, FIG. 6
Protocol: Alanine aminotransferase (ALT) is measured in serum that is harvested from clotted monkey whole blood after centrifugation. A Roche Modular System automated chemistry analyzer measures the enzymatic activity of ALT in the serum by using International Federation of Clinical Chemistry standardized procedures and reagents. The analyzer's computer uses absorbance measurements to calculated ALT activity in the sample as compared to a standard curve. The ALT activity is reported in International Units per Liter (IU/L).

[3] = Rat in vivo evaluation of toxicity (serum ALT and AST); conditions: ApoB siRNA RDV, tail vein, 24 hours after dosing, FIG. 2
Protocol: Six hours post dose, food is removed from the cages. Animal necropsy is performed 24 hours after LNP dosing. Rats are anesthetized under isoflurane for 5 minutes, then maintained under anesthesia by placing them in nose cones continuing the delivery of isoflurane until ex-sanguination is completed. Blood is collected from the vena cava using a 23 gauge butterfly venipuncture set and aliquoted to serum separator vacutainers for serum chemistry analysis. Punches of the excised caudate liver lobe are taken and placed in RNALater (Ambion) for mRNA analysis. Preserved liver tissue was homogenized and total RNA isolated using a Qiagen bead mill and the Qiagen miRNA-Easy RNA isolation kit following the manufacturer's instructions. Liver ApoB mRNA levels were determined by quantitative RT-PCR. Message was amplified from purified RNA utilizing a rat ApoB commercial probe set (Applied Biosystems Cat #RN01499054_m1). The PCR reaction was performed on an ABI 7500 instrument with a 96-well Fast Block. The ApoB mRNA level is normalized to the housekeeping PPIB (NM 011149) mRNA. PPIB mRNA levels were determined by RT-PCR using a commercial probe set (Applied Biosytems Cat. No. Mm00478295_m1). Results are expressed as a ratio of ApoB mRNA/PPIB mRNA. All mRNA data is expressed relative to the PBS control dose. […]

SMILES	cationic lipid liver levels compared with RDV containing DLinKC2DMA (Compound 45) or MC3 (Compound 46) [1]	CTNNB1 mRNA knockdown in liver (CTNNB1 mRNA)	peak ALT elevations compared with RDV containing DLinKC2DMA (Compound 45) or MC3 (Compound 46) [2]	tolerability (serum ALT and AST) compared with RDV containing DLinKC2DMA (Compound 45) or MC3 (Compound 46) [3]
CCCCC/C=C\C/C=C\CCCCCCCCCC(CCCCCCCCC)CCN(C)C (centres unmarked) [Compound 32, (13Z,16Z)—N,N-dimethyl-3-nonyldocosa-13,16-dien-1-amine]	either similar to or lower than	robust KD	lower peak ALT elevations	improved tolerability
CCCCCCCCCC(CCCCCCCC1CC1CCCCCCCC)N(C)C [Compound 33, N,N-dimethyl-1-[(1S,2R)-2-octylcyclopropyl]hepladecan-8-amine]	either similar to or lower than	robust KD	lower peak ALT elevations	improved tolerability
